{"source": "the supplement of paper PMC13207355", "conditions_in_all_cases": "exposure time: 72 h", "key": {"E28 [1]": {"test_system": "E28 (patient-derived glioblastoma stem cells of classical subtype)", "test": "phenotypic distance (Euclidean, principal components) from DMSO controls (arbitrary units); higher = stronger morphological change"}, "E34 [2]": {"test_system": "E34 (patient-derived glioblastoma stem cells of proneural subtype)", "test": "phenotypic distance (Euclidean, principal components) from DMSO controls (arbitrary units); higher = stronger morphological change"}, "E31 [3]": {"test_system": "E31 (patient-derived glioblastoma stem cells of proneural subtype)", "test": "phenotypic distance (Euclidean, principal components) from DMSO controls (arbitrary units); higher = stronger morphological change"}, "E13 [4]": {"test_system": "E13 (patient-derived glioblastoma stem cells of classical subtype)", "test": "phenotypic distance (Euclidean, principal components) from DMSO controls (arbitrary units); higher = stronger morphological change"}, "E57 [5]": {"test_system": "E57 (patient-derived glioblastoma stem cells of mesenchymal subtype)", "test": "phenotypic distance (Euclidean, principal components) from DMSO controls (arbitrary units); higher = stronger morphological change"}, "E21 [6]": {"test_system": "E21 (patient-derived glioblastoma stem cells of mesenchymal subtype)", "test": "phenotypic distance (Euclidean, principal components) from DMSO controls (arbitrary units); higher = stronger morphological change"}, "FT3469 [7]": {"test_system": "FT3469 (normal neural stem cell line)", "test": "phenotypic distance (Euclidean, principal components) from DMSO controls (arbitrary units); higher = stronger morphological change"}, "E28 [8]": {"test_system": "E28", "test": "surviving fraction (nuclei count normalised to DMSO); higher = more cells surviving (less toxic)"}, "E34 [9]": {"test_system": "E34", "test": "surviving fraction (nuclei count normalised to DMSO); higher = more cells surviving (less toxic)"}, "E31 [10]": {"test_system": "E31", "test": "surviving fraction (nuclei count normalised to DMSO); higher = more cells surviving (less toxic)"}, "E13 [11]": {"test_system": "E13", "test": "surviving fraction (nuclei count normalised to DMSO); higher = more cells surviving (less toxic)"}, "E57 [12]": {"test_system": "E57", "test": "surviving fraction (nuclei count normalised to DMSO); higher = more cells surviving (less toxic)"}, "E21 [13]": {"test_system": "E21", "test": "surviving fraction (nuclei count normalised to DMSO); higher = more cells surviving (less toxic)"}, "FT3469 [14]": {"test_system": "FT3469", "test": "surviving fraction (nuclei count normalised to DMSO); higher = more cells surviving (less toxic)"}}}
{"smiles": "COc1ccc2c(c1)CC[C@@H]1[C@@H]2CC[C@]2(C)[C@@H](NCCCCCCN3C(=O)CCC3=O)CC[C@@H]12", "values": [{"measurement": "phenotypic distance", "setting": "E28 [1]; 4.1 nM", "value": 0.61}, {"measurement": "phenotypic distance", "setting": "E28 [1]; 12.3 nM", "value": 0.49}, {"measurement": "phenotypic distance", "setting": "E28 [1]; 37 nM", "value": 0.46}, {"measurement": "phenotypic distance", "setting": "E28 [1]; 111.1 nM", "value": 0.724}, {"measurement": "phenotypic distance", "setting": "E28 [1]; 333.3 nM", "value": 0.645}, {"measurement": "phenotypic distance", "setting": "E28 [1]; 1000 nM", "value": 0.805}, {"measurement": "phenotypic distance", "setting": "E28 [1]; 3000 nM", "value": 2.44}, {"measurement": "phenotypic distance", "setting": "E34 [2]; 4.1 nM", "value": 1.13}, {"measurement": "phenotypic distance", "setting": "E34 [2]; 12.3 nM", "value": 0.657}, {"measurement": "phenotypic distance", "setting": "E34 [2]; 37 nM", "value": 0.637}, {"measurement": "phenotypic distance", "setting": "E34 [2]; 111.1 nM", "value": 0.671}, {"measurement": "phenotypic distance", "setting": "E34 [2]; 333.3 nM", "value": 0.968}, {"measurement": "phenotypic distance", "setting": "E34 [2]; 1000 nM", "value": 1.06}, {"measurement": "phenotypic distance", "setting": "E34 [2]; 3000 nM", "value": 0.95}, {"measurement": "phenotypic distance", "setting": "E31 [3]; 4.1 nM", "value": 0.697}, {"measurement": "phenotypic distance", "setting": "E31 [3]; 12.3 nM", "value": 0.31}, {"measurement": "phenotypic distance", "setting": "E31 [3]; 37 nM", "value": 0.566}, {"measurement": "phenotypic distance", "setting": "E31 [3]; 111.1 nM", "value": 0.735}, {"measurement": "phenotypic distance", "setting": "E31 [3]; 333.3 nM", "value": 1.61}, {"measurement": "phenotypic distance", "setting": "E31 [3]; 1000 nM", "value": 2.54}, {"measurement": "phenotypic distance", "setting": "E31 [3]; 3000 nM", "value": 6.23}, {"measurement": "phenotypic distance", "setting": "E13 [4]; 4.1 nM", "value": 1.07}, {"measurement": "phenotypic distance", "setting": "E13 [4]; 12.3 nM", "value": 0.714}, {"measurement": "phenotypic distance", "setting": "E13 [4]; 37 nM", "value": 0.93}, {"measurement": "phenotypic distance", "setting": "E13 [4]; 111.1 nM", "value": 1.11}, {"measurement": "phenotypic distance", "setting": "E13 [4]; 333.3 nM", "value": 1.31}, {"measurement": "phenotypic distance", "setting": "E13 [4]; 1000 nM", "value": 2.29}, {"measurement": "phenotypic distance", "setting": "E13 [4]; 3000 nM", "value": 3.72}, {"measurement": "phenotypic distance", "setting": "E57 [5]; 4.1 nM", "value": 3.52}, {"measurement": "phenotypic distance", "setting": "E57 [5]; 12.3 nM", "value": 0.302}, {"measurement": "phenotypic distance", "setting": "E57 [5]; 37 nM", "value": 0.424}, {"measurement": "phenotypic distance", "setting": "E57 [5]; 111.1 nM", "value": 0.621}, {"measurement": "phenotypic distance", "setting": "E57 [5]; 333.3 nM", "value": 1.22}, {"measurement": "phenotypic distance", "setting": "E57 [5]; 1000 nM", "value": 1.78}, {"measurement": "phenotypic distance", "setting": "E57 [5]; 3000 nM", "value": 2.68}, {"measurement": "phenotypic distance", "setting": "E21 [6]; 4.1 nM", "value": 0.642}, {"measurement": "phenotypic distance", "setting": "E21 [6]; 12.3 nM", "value": 0.74}, {"measurement": "phenotypic distance", "setting": "E21 [6]; 37 nM", "value": 0.741}, {"measurement": "phenotypic distance", "setting": "E21 [6]; 111.1 nM", "value": 0.893}, {"measurement": "phenotypic distance", "setting": "E21 [6]; 333.3 nM", "value": 0.934}, {"measurement": "phenotypic distance", "setting": "E21 [6]; 1000 nM", "value": 1.42}, {"measurement": "phenotypic distance", "setting": "E21 [6]; 3000 nM", "value": 4.65}, {"measurement": "phenotypic distance", "setting": "FT3469 [7]; 4.1 nM", "value": 0.686}, {"measurement": "phenotypic distance", "setting": "FT3469 [7]; 12.3 nM", "value": 0.245}, {"measurement": "phenotypic distance", "setting": "FT3469 [7]; 37 nM", "value": 0.58}, {"measurement": "phenotypic distance", "setting": "FT3469 [7]; 111.1 nM", "value": 0.496}, {"measurement": "phenotypic distance", "setting": "FT3469 [7]; 333.3 nM", "value": 0.408}, {"measurement": "phenotypic distance", "setting": "FT3469 [7]; 1000 nM", "value": 0.646}, {"measurement": "phenotypic distance", "setting": "FT3469 [7]; 3000 nM", "value": 0.711}, {"measurement": "surviving fraction", "setting": "E28 [8]; 4.1 nM", "value": 1.09}, {"measurement": "surviving fraction", "setting": "E28 [8]; 12.3 nM", "value": 1.03}, {"measurement": "surviving fraction", "setting": "E28 [8]; 37 nM", "value": 1.03}, {"measurement": "surviving fraction", "setting": "E28 [8]; 111.1 nM", "value": 1.09}, {"measurement": "surviving fraction", "setting": "E28 [8]; 333.3 nM", "value": 1.1}, {"measurement": "surviving fraction", "setting": "E28 [8]; 1000 nM", "value": 1.01}, {"measurement": "surviving fraction", "setting": "E28 [8]; 3000 nM", "value": 0.973}, {"measurement": "surviving fraction", "setting": "E34 [9]; 4.1 nM", "value": 0.876}, {"measurement": "surviving fraction", "setting": "E34 [9]; 12.3 nM", "value": 0.901}, {"measurement": "surviving fraction", "setting": "E34 [9]; 37 nM", "value": 1.13}, {"measurement": "surviving fraction", "setting": "E34 [9]; 111.1 nM", "value": 0.957}, {"measurement": "surviving fraction", "setting": "E34 [9]; 333.3 nM", "value": 0.939}, {"measurement": "surviving fraction", "setting": "E34 [9]; 1000 nM", "value": 0.979}, {"measurement": "surviving fraction", "setting": "E34 [9]; 3000 nM", "value": 0.986}, {"measurement": "surviving fraction", "setting": "E31 [10]; 4.1 nM", "value": 0.965}, {"measurement": "surviving fraction", "setting": "E31 [10]; 12.3 nM", "value": 1.14}, {"measurement": "surviving fraction", "setting": "E31 [10]; 37 nM", "value": 0.985}, {"measurement": "surviving fraction", "setting": "E31 [10]; 111.1 nM", "value": 1.05}, {"measurement": "surviving fraction", "setting": "E31 [10]; 333.3 nM", "value": 1.06}, {"measurement": "surviving fraction", "setting": "E31 [10]; 1000 nM", "value": 0.962}, {"measurement": "surviving fraction", "setting": "E31 [10]; 3000 nM", "value": 0.624}, {"measurement": "surviving fraction", "setting": "E13 [11]; 4.1 nM", "value": 0.826}, {"measurement": "surviving fraction", "setting": "E13 [11]; 12.3 nM", "value": 0.95}, {"measurement": "surviving fraction", "setting": "E13 [11]; 37 nM", "value": 0.876}, {"measurement": "surviving fraction", "setting": "E13 [11]; 111.1 nM", "value": 0.929}, {"measurement": "surviving fraction", "setting": "E13 [11]; 333.3 nM", "value": 0.981}, {"measurement": "surviving fraction", "setting": "E13 [11]; 1000 nM", "value": 0.804}, {"measurement": "surviving fraction", "setting": "E13 [11]; 3000 nM", "value": 0.52}, {"measurement": "surviving fraction", "setting": "E57 [12]; 4.1 nM", "value": 1.11}, {"measurement": "surviving fraction", "setting": "E57 [12]; 12.3 nM", "value": 1.04}, {"measurement": "surviving fraction", "setting": "E57 [12]; 37 nM", "value": 1.13}, {"measurement": "surviving fraction", "setting": "E57 [12]; 111.1 nM", "value": 1.13}, {"measurement": "surviving fraction", "setting": "E57 [12]; 333.3 nM", "value": 1.17}, {"measurement": "surviving fraction", "setting": "E57 [12]; 1000 nM", "value": 1.11}, {"measurement": "surviving fraction", "setting": "E57 [12]; 3000 nM", "value": 0.936}, {"measurement": "surviving fraction", "setting": "E21 [13]; 4.1 nM", "value": 1.03}, {"measurement": "surviving fraction", "setting": "E21 [13]; 12.3 nM", "value": 0.961}, {"measurement": "surviving fraction", "setting": "E21 [13]; 37 nM", "value": 0.951}, {"measurement": "surviving fraction", "setting": "E21 [13]; 111.1 nM", "value": 1.13}, {"measurement": "surviving fraction", "setting": "E21 [13]; 333.3 nM", "value": 1.06}, {"measurement": "surviving fraction", "setting": "E21 [13]; 1000 nM", "value": 0.867}, {"measurement": "surviving fraction", "setting": "E21 [13]; 3000 nM", "value": 0.645}, {"measurement": "surviving fraction", "setting": "FT3469 [14]; 4.1 nM", "value": 0.984}, {"measurement": "surviving fraction", "setting": "FT3469 [14]; 12.3 nM", "value": 1.11}, {"measurement": "surviving fraction", "setting": "FT3469 [14]; 37 nM", "value": 1.03}, {"measurement": "surviving fraction", "setting": "FT3469 [14]; 111.1 nM", "value": 1.11}, {"measurement": "surviving fraction", "setting": "FT3469 [14]; 333.3 nM", "value": 1.06}, {"measurement": "surviving fraction", "setting": "FT3469 [14]; 1000 nM", "value": 0.922}, {"measurement": "surviving fraction", "setting": "FT3469 [14]; 3000 nM", "value": 0.983}]}
{"smiles": "Cc1cc(CN)cc(C)c1NC(=O)c1ccc(-c2cc(Cl)ccc2Cl)o1", "values": [{"measurement": "phenotypic distance", "setting": "E28 [1]; 3000 nM", "value": 0.815}, {"measurement": "phenotypic distance", "setting": "E34 [2]; 3000 nM", "value": 0.825}, {"measurement": "phenotypic distance", "setting": "E31 [3]; 3000 nM", "value": 1.86}, {"measurement": "phenotypic distance", "setting": "E13 [4]; 3000 nM", "value": 1.34}, {"measurement": "phenotypic distance", "setting": "E57 [5]; 3000 nM", "value": 1.29}, {"measurement": "phenotypic distance", "setting": "E21 [6]; 3000 nM", "value": 0.968}, {"measurement": "phenotypic distance", "setting": "FT3469 [7]; 3000 nM", "value": 0.784}, {"measurement": "surviving fraction", "setting": "E28 [8]; 3000 nM", "value": 0.919}, {"measurement": "surviving fraction", "setting": "E34 [9]; 3000 nM", "value": 0.829}, {"measurement": "surviving fraction", "setting": "E31 [10]; 3000 nM", "value": 0.856}, {"measurement": "surviving fraction", "setting": "E13 [11]; 3000 nM", "value": 0.865}, {"measurement": "surviving fraction", "setting": "E57 [12]; 3000 nM", "value": 0.964}, {"measurement": "surviving fraction", "setting": "E21 [13]; 3000 nM", "value": 0.862}, {"measurement": "surviving fraction", "setting": "FT3469 [14]; 3000 nM", "value": 0.883}]}
